In patent US20160320368A1, “METHOD AND APPARATUS FOR PREDICTING EFFECTIVE DOSE OR SENSITIVITY OF 5-HYDROXY-1H-IMIDAZOLE-4-CARBOXAMIDE, METHOD FOR DETERMINING AMOUNT OF XANTHOSINE MONOPHOSPHATE, AND TREATMENT AGENT AND METHOD FOR TREATING MYELODYSPLASTIC SYNDROME” (FUJIFILM Corporation, priority 2014, published 2016):

Columns and labels:
[1] = tested on: human myeloid leukemia cell line SKM-1; assay: Cell growth inhibitory activity (CellTiter-Glo, 72 hours); type: cell-based; conditions: SKM-1, 72 hours
Experimental: (§1) A ¾ hydrate of Compound A was used as a test compound.
SKM-1 (available from National Institute of Biomedical Innovation JCRB Cell Bank) was used as a human myeloid leukemia cell line.
90 μL (5000 cells) of the human myeloid leukemia cell line SKM-1 was seeded onto a 96-well plate. 10 μL of a PBS solution of the test compound (0 μmol/L, 1 μmol/L, 3 μmol/L, 10 μmol/L, 30 μmol/L, 100 μmol/L, 300 μmol/L, 1000 μmol/L, 3000 μmol/L, or 10000 μmol/L in terms of Compound A) was added to the plate which was then incubated in 5% CO2 at 37° C. for 72 hours. 100 μL of CellTiter-Glo (manufactured by Promega) was added to each well to prepare a cell lysate.
The relative value of chemiluminescence intensity was calculated by a plate reader.

[2] = tested on: XMP in human myeloid leukemia cells SKM-1; assay: XMP in human myeloid leukemia cells SKM-1 (LC-MS/MS); type: cell-based; conditions: 24 hours; for Amount of XMP (%): non-treated = 100%; for Decline rate of XMP: 100−amount of XMP (%)
Experimental: as §1
SKM-1 was used as a human myeloid leukemia cell.
2×10^7 human myeloid leukemia cells were suspended in a culture flask containing 18 mL of an RPMI1640 medium (manufactured by Life Technologies, Inc.). 2 mL of a PBS solution of the test compound (0 μg/mL, 10 μg/mL, 30 μg/mL, 100 μg/mL, 300 μg/mL, or 1000 μg/mL in terms of Compound A) was added to the flask which was then incubated at 37° C. under 5% CO2 for 24 hours. After centrifugation at 20° C. and 300×g for 3 min, the supernatant was removed and suspended in 10 mL of a PBS solution. 10 μL of the suspension was aliquoted and cells were counted using TC10 (manufactured by BioRad). After centrifugation and 300×g for 5 min, the supernatant was removed. After stirring with addition of 1000 μL of methanol, 500 μL of ultrapure water was added thereto, followed by further stirring. 600 μL of the reaction solution was divided into each of two tubes, and 400 μL of chloroform was added to each tube. The reaction solution was stirred and then centrifuged at 4° C. and 10000×g for 15 min. 400 μL of the aqueous phase was recovered and added to an ultrafiltration tube, followed by centrifugation at 12° C. and 9200×g for about 2 hours. The filtrates were pooled in one tube and then dried under reduced pressure at 40° C. for 2 hours by using a centrifugal evaporator. After drying, the resulting product was stored in a freezer at −80° C.
The samples obtained in (1) were returned to room temperature, to each of which 50 μL of 5 mmol/L ammonium formate containing 4 ng/μL of 2′-fluoro-2′-deoxycytidine monophosphate was then added, followed by stirring. 12.5 μL of the supernatant was transferred to a vial, and XMP in the samples was determined in the following determining conditions.
Amounts of XMP (%) were calculated according to the following equation, assuming that the XMP value of a non-Compound A treated group is defined as 100%.
Amount of XMP (%)=((peak area of XMP)/((peak area of 2′-fluoro-2′-deoxycytidine monophosphate)×(number of cells)))/((peak area of XMP of untreated group)/((peak area of 2′-fluoro-2′-deoxycytidine monophosphate of untreated group) (number of cells of untreated group)))×100
The decline rate of XMP (%) was calculated according to the following equation.
Decline rate of XMP (%)=100−amount of XMP (%)

SMILES: NC(=O)c1nc[nH]c1O [Compound A, 5-Hydroxy-1H-imidazole-4-carboxamide]
- IC50 [1]: 21.5 µM
- IC50 ([1]; in terms of Compound A): 2.73 µg/mL
- Amount of XMP (%) ([2]; SKM-1, Compound A 1 μg/mL): 57%
- Decline rate of XMP ([2]; SKM-1, Compound A 1 μg/mL): 43%
- Amount of XMP (%) ([2]; SKM-1, Compound A 10 μg/mL): 45%
- Decline rate of XMP ([2]; SKM-1, Compound A 10 μg/mL): 55%
- Amount of XMP (%) ([2]; SKM-1, Compound A 100 μg/mL): 17%
- Decline rate of XMP ([2]; SKM-1, Compound A 100 μg/mL): 83%
